This is an account of results in the Deep4Chem optical property database.

The series is described as follows: solvent given as SMILES.

Several values for one entry are separate records, joined by “and”; a condition that tells them apart may be missing. Equal entries are not always repeated.

`COc1ccc2c(c1)C(=O)c1ccccc1-2` had an absorption maximum (in C1CCCCC1) of 421 nm, an absorption maximum (in CC#N) of 432 nm and an absorption maximum (in CCO) of 433 nm.
`COc1ccc(-c2nc(-c3ccc(C)cc3)c3ccccn23)cc1` displayed an absorption maximum (in ClC(Cl)Cl) of 303 nm.
As to `CC1CCC(O)(c2ccc(-c3cccs3)s2)CC1` (configuration not stated), the absorption maximum by setting is: (in C1CCOC1) 341 nm; (in CC#N) 341 nm; (in CCCCCC) 341 nm; (in CCO) 341 nm; (in OCCOCCO) 345 nm; (in c1ccncc1) 345 nm.
Turning to `CC[N+](CC)=c1ccc2cc3c(oc-2c1)-c1ccc(N(C)C)cc1CC3`, the absorption maximum was 612 nm (in CCO), 619 nm (in ClCCl) and 604 nm (in O).
In the case of `Cc1ccc(C2=[N+]3C(=Cc4c(C)cc(C)n4[B-]3(F)F)c3ccccc32)[nH]1`, the absorption maximum turned out to be 607 nm (in C1CCOC1); 600 nm (in CC#N); 607 nm (in CCCCCC); 602 nm (in CO); 612 nm (in Cc1ccccc1); 608 nm (in ClCCl).
For the compound `O=[N+]([O-])c1ccc2c(c1)-c1c3c(c4c([n+]1[B-](F)(F)O2)CCc1ccccc1-4)CCc1ccccc1-3`, the absorption maximum (in ClCCl) worked out at 343 nm.
On to `CC1=CC(C)=[N+]2C1=C(c1ccccc1)c1c(C)c(-c3cccs3)c(C)n1[B-]2(F)F`, for which the absorption maximum was 507 nm (in CO), 513 nm (in Cc1ccccc1) and 511 nm (in ClCCl).
In turn, `CCOC(=O)c1ccc(C2CC(c3cccc4ccccc34)=NN2c2ccc(OC)cc2)cc1` (configuration not stated) showed an absorption maximum (in ClCCl) of 383 nm.
Regarding `CCC1(CC)c2cc(Br)ccc2-c2c1c1c(c3c2C(CC)(CC)c2cc(-c4cccs4)ccc2-3)C(CC)(CC)c2cc(-c3cccs3)ccc2-1`, the absorption maximum (in C1CCOC1) is 338 nm.
For the setting “in CC#N”, `CC(C)=CC(=O)c1cc2c(cc1F)NC(C)(C)CC2=O` returned an absorption maximum of 356 nm.
As to `CCOC(=O)c1c(-c2cc3ccccc3oc2=O)nn(-c2cccc(F)c2)c1C(=O)OCC`, where the note is “in ClCCl”, the absorption maximum stood at 324 nm.
On to `COc1ccc(-c2nc(-c3ccc(-c4nc(-c5ccc(OC)cc5)c(-c5ccc(OC)cc5)[nH]4)cc3)[nH]c2-c2ccc(OC)cc2)cc1`, for which the absorption maximum (in CC#N) was 330 nm and 365 nm.
For the compound `O=Cc1ccc(-c2cccc(-c3nc4ccccc4s3)c2O)s1`, the absorption maximum is 367 nm (in CCO) and 370 nm (in ClCCl).
As to `N#C/C(=C\c1ccc(/C=C/c2ccc(N(c3ccccc3)c3ccccc3)cc2)s1)C(=O)O`, under “in ClCCl”, the absorption maximum worked out at 490 nm.
`Cc1nc2c(ccc3c2sc(/C=C/c2cc4c5c(c2)CCCN5CCC4)[n+]3C)s1`: the absorption maximum runs as follows: (in CO) 574 nm; (in ClC(Cl)Cl) 595 nm.
For the setting “in Cc1ccccc1”, `CC1(C)c2ccccc2N(c2ccc(-c3cnc(C#N)nc3)cc2)c2ccccc21` returned an absorption maximum of 384 nm.
The compound `CC1=CC(C)=[N+]2C1=C(c1ccc(C)cc1)c1c(C)cc(/C=C/c3ccc4ccc5cccc6ccc3c4c56)n1[B-]2(F)F` yielded an absorption maximum (in CC1CCCO1) of 598 nm.
Under “in Cc1ccccc1”, `CC1(C)c2ccccc2N(c2ccc3c(c2)C(c2ccccc2)(c2ccccc2)c2cc(N4c5ccccc5C(C)(C)c5ccccc54)ccc2S3(=O)=O)c2ccccc21` yielded an absorption maximum of 364 nm.
Compound `COc1cc(/C=C/c2ccccc2)cc(OC)c1` gave an absorption maximum (in CC#N) of 306 nm.
In turn, `CC(C)(C(=O)c1ccc(N2c3ccccc3C(C)(C)c3ccccc32)cc1)C(=O)c1ccc(N2c3ccccc3C(C)(C)c3ccccc32)cc1` returned an absorption maximum (in Cc1ccccc1) of 390 nm.
The same measure, in the same setting: with `c1ccc(-c2nc(-c3ccccc3)nc(-c3ccc(N4c5ccccc5[Si](c5ccccc5)(c5ccccc5)c5ccccc54)cc3)n2)cc1` the figure was 376.66 nm.
As for `Cc1ccc2nc3c(=O)[nH]c(=O)[nH]c3nc2c1`, the absorption maximum is, setting by setting: (in CC#N) 370 nm; (in ClCCCl) 368 nm.
In turn, `COC(=O)/C=C/C1=CC2=C(c3c(C)cc(C)cc3C)c3cccn3[B-](F)(F)[N+]2=C1` yielded an absorption maximum (in ClCCl) of 537 nm.
As to `O=C1C=Cc2cc3ccccc3c(=O)n21`, the absorption maximum reads like this: (in CC#N) 351 nm; (in CO) 349 nm; (in CS(C)=O) 357 nm; (in ClC(Cl)Cl) 353 nm.
Under “in CS(C)=O”, `Cc1cccn2c1cc1c3ccccc3nc(-c3ccc(Cl)o3)c12` came in with an absorption maximum of 405 nm.
Regarding `Cc1cc(C)c(B(c2c(C)cc(C)cc2C)c2c(C)cc(-n3c4ccc(N(c5ccccc5)c5ccccc5)cc4c4cc(N(c5ccccc5)c5ccccc5)ccc43)cc2C)c(C)c1`, the absorption maximum (in Cc1ccccc1) is 387 nm.
Take `CCCC1(CCC)c2ccccc2-c2ccc(-c3ccc4c(c3)C(CCC)(CCC)c3cc(-c5ccc6c(c5)C(CCC)(CCC)c5ccccc5-6)ccc3-4)cc21`: the absorption maximum (in C1CCCCC1) is 350 nm.
For the setting “in ClCCl”, `CC(C)(C)c1ccc2c(c1)c1cc(C(C)(C)C)ccc1n2-c1ccc(N(c2ccc(-c3ccc(-c4ccc(-c5ccc(-c6ccc(N(c7ccc(-n8c9ccc(C(C)(C)C)cc9c9cc(C(C)(C)C)ccc98)cc7)c7ccc(-n8c9ccc(C(C)(C)C)cc9c9cc(C(C)(C)C)ccc98)cc7)cc6)cc5)c5nsnc45)cc3)cc2)c2ccc(-n3c4ccc(C(C)(C)C)cc4c4cc(C(C)(C)C)ccc43)cc2)cc1` showed an absorption maximum of 422 nm.
Where the note is “in Cc1ccccc1”, `COCCC1=Cc2nc1ccc1[nH]c(cc1CCOC)c1nc(c(NC(=O)CCCC(=O)OC)cc3[nH]c2cc3CCOC)C(CCOC)=C1` returned an absorption maximum of 670 nm.
Take `CCOC(=O)c1c(-c2cc3cc(OC)ccc3oc2=O)nn(-c2cccc(C)c2)c1C(=O)OCC`: for the setting “in ClCCl”, the absorption maximum was 351 nm.
Turning to `O=c1c2ccccc2[nH]c2ccccc12`, the absorption maximum was 398 nm (in CS(C)=O) and 385 nm (in O).
For `C#CCNC1=C2C(C)=CC(C)=[N+]2[B-](F)(F)n2c(C)cc(C)c21`, the absorption maximum (in C1CCCCC1) worked out at 468.5 nm; the absorption maximum (in CC(C)=O) was found to be 453 nm; the absorption maximum (in CCOC(C)=O) is recorded as 457 nm; the absorption maximum (in CO) came to 453 nm; the absorption maximum (in OCC(F)(F)F) was determined as 450.5 nm.
As to `CCCCCCc1ccc(-n2c3c4cccc(OC)c4nc(-c4ccc(C)cc4)c3c3c2c2c(-c4ccc(C)cc4)nc4c(OC)cccc4c2n3-c2ccc(CCCCCC)cc2)cc1`, the absorption maximum (in ClC(Cl)Cl) was 315 nm.
The compound `Cc1c(C)c(-c2ccc(-c3cccnc3)cc2)c(C)c(C)c1B(c1c(C)c(C)c(-c2ccc(-c3cccnc3)cc2)c(C)c1C)c1c(C)c(C)c(-c2ccc(-c3cccnc3)cc2)c(C)c1C` yielded an absorption maximum (in ClCCl) of 331 nm.
Where the note is “in Cc1ccccc1”, `Cc1ccc(N2C(c3ccccc3[NH-])=[NH+]C(c3ccccc3)C2c2ccccc2)cc1` (configuration not stated) registered an absorption maximum of 328 nm.
`CCC1=C(C)C2=Cc3c4ccccc4c4n3[B-](c3ccc5ccc6cccc7ccc3c5c67)(Oc3ccccc3-4)[N+]2=C1C` (configuration not stated) showed an absorption maximum (in CC#N) of 622 nm, an absorption maximum (in CCCCCC) of 627 nm, an absorption maximum (in Cc1ccccc1) of 630 nm and an absorption maximum (in ClCCl) of 628 nm.
For the compound `Cc1ccc(N(C)C)cc1C1=C2C=CC(=[N+](C)C)C=C2[Si](C)(C)c2cc(N(C)C)ccc21`, for the setting “in O”, the absorption maximum is listed as 646 nm.
As for `CC1=N/C(=C\c2ccccc2N)C(=O)N1C`, the absorption maximum by setting is: (in C1CCCCC1) 427 nm; (in C1CCOC1) 430 nm; (in CC#N) 422 nm; (in CO) 424 nm; (in CS(C)=O) 436 nm; (in ClCCl) 422 nm. The absorption maximum (in O) came to 390 nm.
Turning to `C=Cc1cc(OC)cc(OC)c1`, the absorption maximum (in C1CCCCC1) is on record as 299 nm.
Consider `CN1/C(=C/C=C(/C=C/c2sc3ccccc3[n+]2C)c2ccc(F)cc2)Sc2ccccc21`, for which the absorption maximum worked out at 648 nm (in CCO), 646 nm (in CO), 656 nm (in CS(C)=O) and 641 nm (in O).
Take `CCC(CC)COC1=CC2=C3c4cc(OCC(CC)CC)c(-c5cccs5)n4[B-](F)(F)[n+]4nnn(c43)[B-](F)(F)[N+]2=C1c1cccs1`: the absorption maximum was determined as 784 nm (in C1CCOC1) and 795 nm (in ClCCl).
As to `c1ccc(Nc2nc(Nc3ccccc3)nc(Nc3ccc4cc5ccccc5cc4c3)n2)cc1`, the absorption maximum is, setting by setting: (in C1COCCO1) 402 nm; (in CC#N) 401 nm; (in CCCCOCCCC) 402 nm; (in CCOC(C)=O) 402 nm.
For the compound `CCC1(CC)c2cc(Br)ccc2-c2c1c1c(c3c2C(CC)(CC)c2cc(-c4cccs4)ccc2-3)C(CC)(CC)c2cc(Br)ccc2-1`, the absorption maximum (in C1CCOC1) was determined as 336 nm.
`COC(=O)[C@H](Cc1ccc2oc3c(c2c1)=CC1=C(c2ccc(OC)cc2)c2cc4c5cc(C[C@H](NC(=O)OC(C)(C)C)C(=O)OC)ccc5oc4n2[B-](F)(F)[N+]=31)NC(=O)OC(C)(C)C` yielded an absorption maximum (in C1CCCCC1) of 586.5 nm, an absorption maximum (in CCOC(C)=O) of 581.5 nm and an absorption maximum (in CO) of 580 nm.
On to `O=c1cc(COc2ccc(I)cc2)c2c(ccc3ccccc32)o1`, for which the absorption maximum is on record as 349 nm (in C1CCOC1); 348 nm (in C1COCCO1); 348 nm (in CC#N); 349 nm (in CC(C)=O); 350 nm (in CCCCO); 350 nm (in CCCO). Moreover, the absorption maximum stood at 350 nm (in CCO); 348 nm (in CCOC(C)=O); 350 nm (in CN(C)C=O); 348 nm (in CO); 350 nm (in Cc1ccccc1); 349 nm (in ClCCl).
As to `CCC1=C(C)C(=O)n2c1cc1c(CCC(=O)OC)c(C)c(C)n1c2=O`, the absorption maximum runs as follows: (in CC#N) 420 nm; (in CC(C)=O) 420 nm; (in CO) 426 nm; (in CS(C)=O) 427 nm; (in ClC(Cl)Cl) 429 nm; (in c1ccccc1) 425 nm.
